From patent US12534501B2, “Targeting deregulated Wnt signaling in cancer using stabilized alpha-helices of BCL-9” (Dana-Farber Cancer Institute, Inc., priority 2011, dated 2026)
Numbered stars: 1 amine (or outer) side, 2 acyl side, 3 side chain; on linkers, the order of the positions; unused ones are H or OH. Bridge positions count the residues as written; N and C are the ends. Square brackets hold non-standard residues; d marks the D form. Peptide text beside a SMILES is read from it. ξ: configuration not given here. ξαMeNle(6-ylidene) = CC(CCCC=[*:3])(N[*:1])C(=O)[*:2]; Nle = CCCC[C@H](N)C(=O)O

Key:
[1] = test system: GFP-positive Colo320 cells in NOD/SCID mice; test: Colo320 intraperitoneal xenograft model; type: in vivo
Procedure: To explore the therapeutic potential of targeting the BCL9/β-catenin interaction, the capacity of SAH-BCL9B to suppress tumor growth was examined in vivo. GFP-expressing Colo320 cells (1×10^6) were injected into the peritoneum of sublethally irradiated NOD/SCID mice. Two days after cellular injection, mouse cohorts (n=6) were treated with vehicle (2.5% DMSO in D5W), SAH-BCL9B, or SAH-BCL9B(R359E) peptides (20 mg/kg) for a total of 6 doses administered intraperitoneally every other day. On day 40 of the experiment, mice were sacrificed and evaluated for tumor burden and metastasis by whole body imaging and histologic examination of harvested GFP-positive tissues. […] Importantly, no histologic changes in normal murine tissues were observed across the treatment groups upon necropsy.
GFP-positive Colo320 cells were generated as previously reported (Mani, M. et al. Cancer Res 69, 7577-86 (2009)). Cells were pelleted, resuspended in sterile 1x PBS and injected intraperitoneally (1×10^6 cells/mouse) into 5-week-old sublethally irradiated NOD.CB17-PrkdcSCID/J mice (Jackson Laboratory) (n=6 per cohort). Two days after cellular inoculation, mice were treated by intraperitoneal injection with vehicle (2.5% DMSO in D5W) or SAH-BCL9 peptides (20 mg/kg) on alternate days for a total of 6 doses. Forty days after tumor cell injection, the mice were euthanized and GFP-positive tumor visualized using an ImageQuant LAS-4000 (GE Healthcare). Complete necropsies were performed for each experimental animal and livers were sectioned in their entirety at 5 mm intervals for quantitation of tumor metastases. Tissues were subjected to H&E staining and immunohistochemical analysis using anti-CD34 and anti-CD44 antibodies.

Colo320 cells [2] = test: Combination with 5-fluorouracil, 3H-thymidine incorporation; type: cell-based; settings: Colo320, increasing concentrations of 5-FU
Procedure: To test whether the anti-proliferative effect of SAH-BCL9B could synergize with other agents commonly used to treat MM or CRC, combination treatment studies were conducted. Indeed, the cytotoxic effects of 5-fluorouracil on CRC cells and of doxorubicin on MM cells were enhanced by SAH-BCL9B, but not by vehicle or the mutant peptide. See results in FIG. 21.

MM1S cells = test: Cell proliferation, [3H]thymidine uptake; type: cell-based; settings: 5 μM
Procedure: (§1) Cell proliferation assays were performed as described (Sukhdeo, K. et al. Proc Natl Acad Sci USA 104, 7516-21 (2007)). Cell viability was measured using the CellTiter-Glo assay (Promega) according to the manufacturer's instructions. Apoptosis was evaluated by activated caspase-3 and PARP western blotting. See results in FIG. 3A-FIG. 3F, FIG. 13, and FIG. 20.

Colo320 cells [3] = test: Cell proliferation, [3H]thymidine uptake; type: cell-based; settings: 5 μM, 24 h
Procedure: as §1

[4] = test system: colorectal primary tumors (CCPT); test: Cell proliferation, [3H]thymidine uptake; type: cell-based, human; settings: primary CRC cells; 5 μM, 24 h
Source text: (§2) Bone marrow specimens were obtained from patients with MM in accordance with Dana-Farber Cancer Institute Review Board approval and informed consent performed in compliance with the Declaration of Helsinki. Primary CD138+ plasma cells were purified using magnetic beads as described (Sukhdeo, K. et al. Proc Natl Acad Sci USA 104, 7516-21 (2007)). CRC primary tumor samples were obtained from the Brigham and Women's Hospital in accordance with the policies of their Institutional Review Board. To generate sufficient CRC primary tumor cells for experimentation, the primary tumors were first expanded subcutaneously in NOD/SCID mice (Jackson Laboratory). After the tumors reached 2 cm in diameter, mice were sacrificed according to institutional guidelines and subcutaneous tumor xenografts were minced with a scalpel and digested by incubation with collagenase IV (Worthington Biomedical Corporation) and 0.01% DNase I (Sigma-Aldrich) at 37° C. for 30 min, followed by additional mechanical disaggregation using a Stomacher device (Seward Laboratory Systems Inc.). […]
as §1, with “See results in FIG. 3A-FIG. 3F, FIG. 13, and FIG. 20.” left out

[5] = test system: multiple myeloma primary tumors (MMPT); test: Cell proliferation, [3H]thymidine uptake; type: cell-based, human; settings: primary MM cells; 5 μM
Source text: as §2
as §1, with “See results in FIG. 3A-FIG. 3F, FIG. 13, and FIG. 20.” left out

[6] = 20 mg/kg i.p. every other day, 6 doses, day 40

CCCC[C@H](NC(=O)[C@H](CCCNC(=N)N)NC(=O)[C@H](CCC(N)=O)NC(=O)[C@@H](NC(=O)C1(C)CCCC=CCCCC(C)(NC(=O)[C@H](CC(C)C)NC(=O)[C@H](CO)NC(=O)[C@H](CCCNC(=N)N)NC(=O)[C@H](CCC(=O)O)NC(=O)[C@H](CCCNC(=N)N)NC(=O)[C@H](Cc2c[nH]cn2)NC(=O)[C@H](CCC(=O)O)NC(=O)[C@H](CC(C)C)NC(=O)[C@H](CCC(N)=O)NC(=O)[C@H](CCC(=O)O)NC(=O)[C@H](CCC(N)=O)NC(=O)[C@H](CO)NC(=O)[C@H](CC(C)C)NC(C)=O)C(=O)N[C@@H]([C@@H](C)O)C(=O)N[C@@H](CC(C)C)C(=O)N[C@@H](CCCNC(=N)N)C(=O)N1)[C@@H](C)CC)C(=O)N[C@@H](CC(C)C)C(=O)N[C@@H](Cc1ccccc1)C(N)=O (some centres unmarked) [SAH-BCL9B] (Ac-LSQEQLEHRERSL[ξαMeNle(6-ylidene)]TLR[ξαMeNle(6-ylidene)]IQR[Nle]LF-NH2; staple 14-18)
metastatic tumor nodules in the liver [1, 6]: overall reduction of metastatic tumor nodules | tumor burden (overall tissue fluorescence, whole body imaging) [1, 6]: markedly reduced | capillary CD34 immunoreactivity ([1]; 20 mg/kg i.p., 6 doses): less intense capillary CD34 immunoreactivity | number of intratumoral blood vessels ([1]; 20 mg/kg i.p., 6 doses): reduction in the number of intratumoral blood vessels | tumor cell CD44 immunoreactivity ([1]; 20 mg/kg i.p., 6 doses): decreased tumor cell CD44 immunoreactivity | TUNEL positivity in colonic tumor tissue ([1]; NOD/SCID mice bearing intraperitoneal Colo320 cells): notably increased TUNEL positivity | enhancement of anti-tumor activity of 5-fluorouracil (Colo320 cells [2]): significantly enhanced the anti-tumor activity | proliferation (MM1S cells): reduced the proliferation | proliferation (Colo320 cells [3]): reduced the proliferation | proliferation [4]: reduced the proliferation | proliferation [5]: reduced the proliferation
